Assay results: patent US20250170266A1 (ZYMEWORKS BC INC., priority 2022, published 2025)
Read-outs that look alike come from different tables or passages of the source.

Key:
Assay type in all cases: cell-based
Mouse splenocytes = test: Mouse Splenocyte Assay, cytokine release (HTRF); details: Splenocyte, 24 hours, mIL6 in supernatant, read-out: Splenocyte IL6 EC50
Method: Mouse splenocytes were isolated from fresh mouse spleens. Briefly, spleens were harvested from female balb/c nude mice and transferred to a 70 μm cell strainer. The cell strainer was subsequently placed in a 6-well suspension culture plate containing 5 mL media (RPMI+10% FBS). The spleens were crushed against the cell strainer using the flat end of a 10 mL syringe plunger and the cell strainer was washed with 5 mL media. The cell strainer was discarded, and the cell suspension was washed in PBS. Red blood cells were removed using PharmaLyse (BD). The cell suspension was washed in media, resuspended in CryoStor® CS10 ([…]) and frozen. On assay day, mouse splenocytes were thawed in warm assay buffer (RPMI+10% FBS). Cells were spun down and resuspended in fresh assay buffer. 100,000 cells were added to each well of plates containing test compound. For test compound preparation, each compound was initially diluted to 1 mM in DMSO and further diluted in assay buffer. A 4-fold 11-point titration starting from 15 μM was performed. Cells were incubated with test compound at 37° C.+5% CO2 for 24 hours before supernatant was harvested. Murine IL6 (mIL6) and murine TNFα (mTNFα) were quantified in the supernatant using homogeneous time resolved fluorescence (Cisbio).
(§1) Each assay included a positive control compound (referred to herein as “benchmark,” see, e.g., TABLE 3 below, and taken from International Patent Publication No. WO2017/072662, structure shown below) and a negative control (growth medium). […] The structure of the benchmark compound from International Patent Publication No. WO 2017/072662 is as follows: […]

mTLR7 = target: T1, mTLR7 (Mus musculus, UniProt P58681); test: Reporter Gene Assay (RGA), HEK-Blue mTLR7 reporter cells, SEAP readout; details: overnight incubation, SEAP absorbance 620 nm
T1 construct: host or cells: HEK-Blue mTLR7 reporter cells (HEK293-derived, own knowledge)
T1 sequence (P58681 27-1050): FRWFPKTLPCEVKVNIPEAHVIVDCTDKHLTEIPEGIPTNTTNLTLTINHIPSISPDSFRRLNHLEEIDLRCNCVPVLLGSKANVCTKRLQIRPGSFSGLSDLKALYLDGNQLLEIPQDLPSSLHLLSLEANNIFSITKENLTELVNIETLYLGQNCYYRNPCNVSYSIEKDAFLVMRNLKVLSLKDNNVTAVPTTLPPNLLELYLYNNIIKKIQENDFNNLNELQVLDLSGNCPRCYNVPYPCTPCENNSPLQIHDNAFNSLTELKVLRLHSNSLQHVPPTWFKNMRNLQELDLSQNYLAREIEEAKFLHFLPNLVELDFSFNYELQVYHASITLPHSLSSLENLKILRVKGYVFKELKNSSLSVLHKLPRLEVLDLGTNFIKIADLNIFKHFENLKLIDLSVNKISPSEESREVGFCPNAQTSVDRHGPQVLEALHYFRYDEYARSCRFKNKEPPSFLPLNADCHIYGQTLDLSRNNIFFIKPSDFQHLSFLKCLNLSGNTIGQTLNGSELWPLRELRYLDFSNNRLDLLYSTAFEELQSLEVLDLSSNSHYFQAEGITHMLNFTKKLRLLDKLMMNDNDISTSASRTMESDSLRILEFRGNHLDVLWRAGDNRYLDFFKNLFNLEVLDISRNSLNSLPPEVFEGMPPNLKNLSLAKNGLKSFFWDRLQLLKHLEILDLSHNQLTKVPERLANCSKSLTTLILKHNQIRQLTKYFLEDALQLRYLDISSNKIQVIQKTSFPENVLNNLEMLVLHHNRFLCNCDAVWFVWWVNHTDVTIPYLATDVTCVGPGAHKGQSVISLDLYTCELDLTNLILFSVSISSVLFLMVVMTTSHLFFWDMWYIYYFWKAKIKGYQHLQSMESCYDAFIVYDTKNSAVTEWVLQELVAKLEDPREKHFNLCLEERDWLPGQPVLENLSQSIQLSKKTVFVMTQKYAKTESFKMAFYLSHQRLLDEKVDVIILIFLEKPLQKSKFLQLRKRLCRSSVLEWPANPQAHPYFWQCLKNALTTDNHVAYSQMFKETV
Method: (§2) 1.5×10^4 HEK-Blue™ hTLR7 (Invivogen, San Diego, CA) or HEK-Blue™ mTLR7 (Invivogen, San Diego, CA) reporter cells were treated with a titration series of test compound (4-fold titration from […], 11 points). Compounds were initially diluted to 1 mM in DMSO and subsequently serial-diluted in assay media (HEK-Blue™ Detection; Invivogen, San Diego, CA). Cells with test compound were incubated overnight at 37° C.+5% CO2, and the amount of secreted embryonic alkaline phosphatase (SEAP) was determined by measuring absorbance (620 nm) using a Synergy™ H1 microplate reader.
as §1

[1] = system: Human peripheral blood mononuclear cells (PBMCs); test: Human PBMC Assay, cytokine release (HTRF); details: PBMC, 24 hours
Source text: Human peripheral blood mononuclear cells (PBMCs) were isolated from fresh Leukopak using magnetic separation. Briefly, erythrocytes and granulocytes were magnetically labeled with Erythrocyte Depletion MicroBeads (Miltenyi Biotec) and Granulocyte Depletion MicroBeads (Miltenyi Biotec), respectively. The cell suspension was loaded onto a Multi-24 Column Block (Miltenyi Biotec) and placed in the magnetic field of a MultiMACS Cell24 Separator Plus (Miltenyi Biotec). The unlabelled PBMCs were collected in the run through. PBMCs were resuspended in CryoStor® CS10 ([…]) and frozen. On the day before the assay, PBMCs were thawed in warm assay buffer (RPMI+10% FBS) and resuspended in assay buffer+10 ng/ml hIL3 (R&D Systems). Cells were rested at 37° C.+5% CO2 overnight. The following day, cells were spun down and resuspended in fresh assay buffer. 300,000 cells were added to each well of plates containing test compound. For test compound preparation, each compound was initially diluted to 1 mM in DMSO and further diluted in assay buffer. A 4-fold 11-point titration starting from 15 μM was performed. Cells were incubated with test compound at 37° C.+5% CO2 for 24 hours before supernatant was harvested. Human interleukin 6 (hIL6), human tumor necrosis factor alpha (hTNFα), and human interferon alpha (hIFNα) were quantified in the supernatant using homogeneous time resolved fluorescence (Cisbio).
as §1

hTLR7 = target: T2, hTLR7 (Homo sapiens, UniProt Q9NYK1); test: Reporter Gene Assay (RGA), HEK-Blue hTLR7 reporter cells, SEAP readout; details: overnight incubation, SEAP absorbance 620 nm
T2 construct: host or cells: HEK-Blue hTLR7 reporter cells (HEK293-derived, own knowledge)
T2 sequence (Q9NYK1 27-1049): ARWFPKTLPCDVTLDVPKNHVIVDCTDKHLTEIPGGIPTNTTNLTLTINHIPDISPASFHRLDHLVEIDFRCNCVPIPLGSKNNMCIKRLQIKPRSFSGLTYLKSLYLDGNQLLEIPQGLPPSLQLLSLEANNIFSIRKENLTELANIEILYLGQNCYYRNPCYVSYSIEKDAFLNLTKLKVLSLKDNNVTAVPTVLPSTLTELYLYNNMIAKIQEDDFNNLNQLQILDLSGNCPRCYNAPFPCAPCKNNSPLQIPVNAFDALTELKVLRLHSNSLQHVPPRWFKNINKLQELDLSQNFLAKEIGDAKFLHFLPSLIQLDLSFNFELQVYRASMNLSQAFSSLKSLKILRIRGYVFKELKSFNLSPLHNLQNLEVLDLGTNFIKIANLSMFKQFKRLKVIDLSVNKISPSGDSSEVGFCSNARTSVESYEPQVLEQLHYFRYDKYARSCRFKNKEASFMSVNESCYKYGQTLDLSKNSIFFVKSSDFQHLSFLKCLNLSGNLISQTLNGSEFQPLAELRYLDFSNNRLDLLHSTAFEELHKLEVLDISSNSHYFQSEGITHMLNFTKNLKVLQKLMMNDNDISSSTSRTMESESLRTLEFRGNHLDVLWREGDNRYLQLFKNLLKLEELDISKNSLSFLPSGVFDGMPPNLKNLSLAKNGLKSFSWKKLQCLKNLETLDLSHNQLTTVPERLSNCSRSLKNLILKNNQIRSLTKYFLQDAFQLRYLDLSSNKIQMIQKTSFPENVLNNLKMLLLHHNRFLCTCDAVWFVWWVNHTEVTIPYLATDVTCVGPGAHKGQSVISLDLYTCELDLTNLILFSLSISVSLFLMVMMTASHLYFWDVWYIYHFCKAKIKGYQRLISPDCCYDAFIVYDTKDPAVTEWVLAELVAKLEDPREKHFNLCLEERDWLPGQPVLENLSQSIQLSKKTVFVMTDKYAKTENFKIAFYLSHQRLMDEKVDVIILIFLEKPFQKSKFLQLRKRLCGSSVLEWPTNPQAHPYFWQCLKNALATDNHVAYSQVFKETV
Method: as §2, §1

[2] = hIFNα in supernatant, EC50 values approximated and divided into groups, read-out: PBMC IFNa EC50
[3] = hIL6 in supernatant, read-out: PBMC IL6 EC50

EC50 (Mouse splenocytes) [nM]	EC50 (mTLR7) [nM]	EC50 (hTLR7) [nM]	Compound	EC50 [1, 2] [nM]	EC50 [1, 3] [nM]
2060	94.1	348	CCOc1nc(N)c2nc(O)n(Cc3ccc(CNCCCCN)cc3OC)c2n1 [Compound 106, 6-amino-9-(4-(((4-aminobutyl)amino)methyl)-2-methoxybenzyl)-2-ethoxy-9H-purin-8-ol]	1 to 10	688
33.3	0.3	13	CCOc1nc(N)c2nc(O)n(Cc3ccc(CNCc4ccccc4)cc3OC)c2n1 [Compound 107, 6-amino-9-(4-((benzylamino)methyl)-2-methoxybenzyl)-2-ethoxy-9H-purin-8-ol]	0.1 to 1	2720
71.9	5	6	CCOc1nc(N)c2nc(O)n(Cc3ccc(CNC4CCC4)cc3OC)c2n1 [Compound 108, 6-amino-9-(4-((cyclobutylamino)methyl)-2-methoxybenzyl)-2-ethoxy-9H-purin-8-ol]	< 0.1	564
166	13.1	56	CCOc1nc(N)c2nc(O)n(Cc3ccc(CNC4CC(F)(F)C4)cc3OC)c2n1 [Compound 109, 6-amino-9-(4-(((3,3-difluorocyclobutyl)amino)methyl)-2-methoxybenzyl)-2-ethoxy-9H-purin-8-ol]	1 to 10	456
≥ 1000	184	112	CCOc1nc(N)c2nc(O)n(Cc3ccc(CN4CCC(N)CC4)cc3OC)c2n1 [Compound 110, 6-amino-9-(4-((4-aminopiperidin-1-yl)methyl)-2-methoxybenzyl)-2-ethoxy-9H-purin-8-ol]	1 to 10	937
20.8	86.9	102	CCOc1nc(N)c2nc(O)n(Cc3ccc(CNCCN)cc3OC)c2n1 [Compound 111, 6-amino-9-(4-(((2-aminoethyl)amino)methyl)-2-methoxybenzyl)-2-ethoxy-9H-purin-8-ol]	1 to 10	531
1180	662	187	CCOc1nc(N)c2nc(O)n(Cc3ccc(CN4CCN(CCNC(=O)CC(SC[C@@H](N)C(=O)O)C(=O)O)CC4)cc3OC)c2n1 (stereo partly drawn) [Compound 113, 2-(((S)-2-amino-2-carboxyethyl)thio)-4-((2-(4-(4-((6-amino-2-ethoxy-8-hydroxy-9H-purin-9-yl)methyl)-3-methoxybenzyl)piperazin-1-yl)ethyl)amino)-4-oxobutanoic Acid]	> 10	1360
901	1520	261	CCOc1nc(N)c2nc(O)n(Cc3ccc(CNCCCC[C@H](N)C(=O)O)cc3OC)c2n1 [Compound 114, N^6-(4-((6-amino-2-ethoxy-8-hydroxy-9H-purin-9-yl)methyl)-3-methoxybenzyl)-L-lysine]	> 10	1750
3240	1600	277	CCOc1nc(N)c2nc(O)n(Cc3ccc(CNCCCCCC(=O)O)cc3OC)c2n1 [Compound 115, 6-((4-((6-amino-2-ethoxy-8-hydroxy-9H-purin-9-yl)methyl)-3-methoxybenzyl)-amino)hexanoic Acid]	> 10	2810
2180	1020	184	CCOc1nc(N)c2nc(O)n(Cc3ccc(CNCCC(=O)N[C@@H](Cc4c[nH]cn4)C(=O)O)cc3OC)c2n1 [Compound 116, (3-((4-((6-amino-2-ethoxy-8-hydroxy-9H-purin-9-yl)methyl)-3-methoxybenzyl)-amino)-propanoyl)-L-histidine]	> 10	3080
639	11.4	2.04	CCOc1nc(N)c2nc(O)n(Cc3ccc(CN[C@H](CO)Cc4ccccc4)cc3OC)c2n1 [Compound 118, (S)-6-amino-2-ethoxy-9-(4-(((1-hydroxy-3-phenylpropan-2-yl)amino)methyl)-2-methoxybenzyl)-9H-purin-8-ol]	0.1 to 1	1400
